What all share (type): cell-based
The test system of one assay is C170 cells. The experiment in a line: 5FU and SC101/29, crystal violet cell number after 5 days. The conditions noted are these: 5 Fluorouracil 0.25 μg/ml alone. Here is the method: 3×10^3 C170 cells were plated into microtitre plates and left overnight to adhere. 5FU was added to a final concentrations of 0.25 and 0.5 μg/ml .SC101/29 antibody was also added at concentration of 1-50 μg/ml. […] However, in combination with a non-toxic dose of 5 Fluorouracil (0.25 μg/ml) there was a 70% reduction in cell growth.

A further assay has as its system Colorectal C170 cells. Briefly: Cyto Death ELISA for fragmented DNA, with or without cisplatin. The following applies: cisplatin at 3 μg/ml alone. Here is the method:
The cultures were then washed once and incubated in goat anti-mouse antibody at 100 μg/ml for 30 minutes at room temperature. The cultures were then re-washed and left over night in culture medium with or without cisplatin. The following day the cultures were washed, lysed and tested for the presence of fragmented DNA by a Cyto Death ELISA (Roche). The results were recorded by optical Density measurements at 405 nm.
For orientation: In an ELISA, binding on a coated surface is turned into a signal by an enzyme label.

Assay [1] has as its system C170 colorectal tumour cells. The experiment in a line: Cisplatin then SC101/29, crystal violet viable cells after 4 days. More on the design: dose or concentration left out as unconfirmed. The conditions noted are these: cisplatin alone. On the procedure:
[…] The cells were left for 4 days when the number of viable cells was determined by crystal violet staining and optical density reading at 550 nm. […] The combination of drug and antibody are synergistic, inducing a 50% reduction in cell growth.

With `O=c1[nH]cc(F)c(=O)[nH]1` [5 Fluorouracil], the “toxicity of dose to C170 cells” value with C170 cells is given as “non-toxic”. Regarding `N.N.[Cl][Pt][Cl]` [cisplatin], the “apoptosis (fragmented DNA)” value with Colorectal C170 cells is “induces apoptosis”. Also, in assay [1], the “inhibition of C170 cell growth” value came to 10%.
